Test system: ATDC5 cells
Assay: Chondrogenesis activity assay in ATDC5 cells (collagen type II induction, immunofluorescence)
Format: cell-based, mouse
Settings: Mus musculus; for Emax: maximum percent induction of collagen type II relative to internal reference compound at 10 μM, ATDC5 cells; for EC50: collagen type II induction in ATDC5 cells, concentration reaching 50% of maximum induction
Protocol: A) Chondrogenesis Activity Assay in ATDC5 Cells
The chondrogenic potential of the compounds of the invention was determined using clonal mouse chondrogenic ATDC5 cells (T. Atsumi et al., Cell Differ. Dev. 1990, 30, 109-116). ATDC5 cells are derived from mouse embryonic AT805 teratocarcinoma cells and are used frequently to study the multistep chondrogenic differentiation process from precursor cells into chondrocytes (C. Shukunami et al., Exp. Cell Res. 1998, 241, 1-11; H. Aklyami et al., J. Bone Miner. Res. 1996, 11, 22-28; H. Akiyami et al., Biochem. Biophys. Res. Commun. 1997, 235, 142-147; C. Shukunami et al., J. Cell Biol. 1996, 133, 457-468; C. Shukunami et al., J. Bone Miner. Res. 1997, 12, 1174-1188). Undifferentiated ATDC5 cells grow in vitro until confluence, showing a fibroblast-like morphology. In the presence of insulin, cells undergo transient condensation and form numerous nodular structures (cartilage nodules). The cartilagenous nature of these nodules was shown by Alcian Blue staining as evidence of the production of proteoglycan (aggrecan) and collagen type II expression (by expression analysis), both molecular markers of chondrocytes (C. Shukunami et al., J. Cell Biol. 1996, 133, 457-468).
Chondrogenic differentiation of ATDC5 cells into chondrocytes by the compounds of the invention was determined by measuring the induction of type II collagen protein as a marker of chondrocytes, a structural component of the extracellular matrix which constitutes more than 80% of cartilage mass (D. R. Eyre, Clin. Orthop. Relat. Res. 2004, 427 Suppl, S118-S122). ATDC5 cells were obtained from RIKEN and cultured as monolayer in basal culture medium (Dulbecco's Modified Eagle Medium/Nutrient Mixture F-12 (DMEM/F12, Invitrogen, #31331-093) supplemented with 10 μg/ml Transferrin (Roche, #10652 202001), 3×10E−8 M sodium seienite (Sigma, #S-5261) and 5% Fetal Calf Serum (FCS Gold, PAA, #A15-251)), at 37° C., and 5% CO2 in plastic flasks of 75 cm^2 or 300 cm^2 subconfluently for propagation. ATDC5 cells were harvested and resuspended in differentiation culture medium that consisted of basal culture medium complemented with 10 μg/ml insulin (Sigma, #19278), to initiate chondrogenic differentiation. For studying the effect of test compounds, the ATDC5 cells were plated in 96-well plates (3.0×10E4 cells per well in 200 μl of differentiation culture medium). Test compounds dissolved in DMSO were added to yield increasing compound concentrations, typically from 40 nM to 10 μM, and a final DMSO concentration of 0.1%. On each 96-well plate, control wells containing no test compound but the same concentration of DMSO, i.e. untreated cells, were included and used as reference for the determination of the effect of the test compounds on the cells, and wells containing an internal reference compound at a concentration of 10 μM were included and used as positive control and for standardizing the results. Cells in the wells were incubated for 4 days at 37° C., and 5% CO2, followed by quantification of intracellular collagen type II.
Quantification of collagen type II in the ATDC5-cells was done by immunofluorescence staining of collagen type II, and fluorescence intensity was measured using a cellular high content imaging system (ImageXpress, Molecular Device). For immunofluorescence staining of intracellular collagen, medium was removed after compound incubation and cells were fixed with 200 μl/well methanol/water (95%/5%). Cells were permeabilized in 200 μl/well phosphate-buffered saline (PBS) containing 0.2% Triton X100 for 15 min and, after removal of the solution, blocked for 30 min with 200 μl/well PBS/0.2% Triton X100 containing 1% bovine serum albumin (BSA) to avoid unspecific binding. After the blocking step, the solution was removed and collagen type II staining solution was added. […]

EC50 | Compound | Emax
 | FC(F)(F)Cn1c2cnccc2c2cc(Cl)cc(-c3csc(Cl)c3)c21 [Example 76, 6-Chloro-8-(5-chloro-thiophen-3-yl)-9-(2,2,2-trifluoro-ethyl)-9H-pyrido[3,4-b]indole] | 20 to 50%
0.58 µM | Cc1nccc2c1[nH]c1c(-c3ccc(Cl)nc3)cc(Cl)cc12 [Example 77, 6-Chloro-8-(6-chloro-pyridin-3-yl)-1-methyl-9H-pyrido[3,4-b]indole] | > 80%
> 10 µM | CCn1c2c(-c3cncc(Cl)c3)cc(Cl)cc2c2ccnc(C)c21 [Example 78, 6-Chloro-8-(5-chloro-pyridin-3-yl)-9-ethyl-1-methyl-9H-pyrido[3,4-b]indole] | < 20%
3.9 µM | CCn1c2c(-c3ccc(Cl)nc3)cc(Cl)cc2c2ccnc(C)c21 [Example 79, 6-Chloro-8-(6-chloro-pyridin-3-yl)-9-ethyl-1-methyl-9H-pyrido[3,4-b]indole] | > 80%
1.2 µM | FC(F)(F)Cn1c2cnccc2c2cc(Cl)cc(-c3ccc(NC4CCCCC4)nc3)c21 [Example 80, (5-[6-Chloro-9-(2,2,2-trifluoro-ethyl)-9H-pyrido[3,4-b]indol-8-yl]-pyridin-2-yl)-cyclohexyl-amine] | 20 to 50%
4.1 µM | FC(F)(F)Cn1c2cnccc2c2cc(Cl)cc(-c3ccc(N4CCCC4)nc3)c21 [Example 81, 6-Chloro-8-(6-pyrrolidin-1-yl-pyridin-3-yl)-9-(2,2,2-trifluoro-ethyl)-9H-pyrido[3,4-b]indole] | > 80%
2 µM | Fc1cncc(-c2cc(Cl)cc3c4ccncc4n(CC(F)(F)F)c23)c1 [Example 82, 6-Chloro-8-(5-fluoro-pyridin-3-yl)-9-(2,2,2-trifluoro-ethyl)-9H-pyrido[3,4-b]indole] | 20 to 50%
2.1 µM | Cc1nc(Cl)ccc1-c1cc(Cl)cc2c3ccncc3n(CC(F)(F)F)c12 [Example 83, 6-Chloro-8-(6-chloro-2-methyl-pyridin-3-yl)-9-(2,2,2-trifluoro-ethyl)-9H-pyrido[3,4-b]indole] | 20 to 50%
> 10 µM | CN(C)c1ccc(-c2cc(Cl)cc3c4ccncc4n(CC(F)(F)F)c23)cn1 [Example 84, (5-[6-Chloro-9-(2,2,2-trifluoro-ethyl)-9H-pyrido[3,4-b]indol-8-yl]-pyridin-2-yl)-dimethyl-amine] | 20 to 50%
> 10 µM | COc1ncc(-c2cc(Cl)cc3c4ccncc4n(CC(F)(F)F)c23)cc1F [Example 85, 6-Chloro-8-(5-fluoro-6-methoxy-pyridin-3-yl)-9-(2,2,2-trifluoro-ethyl)-9H-pyrido[3,4-b]indole] | 20 to 50%
0.75 µM | FC(F)(F)Cn1c2cnccc2c2cc(Cl)cc(-c3ccc(N4CCOCC4)nc3)c21 [Example 86, 6-Chloro-8-(6-morpholin-4-yl-pyridin-3-yl)-9-(2,2,2-trifluoro-ethyl)-9H-pyrido[3,4-b]indole] | > 80%
1.5 µM | CN1CCN(c2ccc(-c3cc(Cl)cc4c5ccncc5n(CC(F)(F)F)c34)cn2)CC1 [Example 87, 6-Chloro-8-[6-(4-methyl-piperazin-1-yl)-pyridin-3-yl]-9-(2,2,2-trifluoro-ethyl)-9H-pyrido[3,4-b]indole] | 50 to 80%
1.7 µM | FC(F)(F)Cn1c2cnccc2c2cc(Cl)cc(-c3ccc(C(F)(F)F)nc3)c21 [Example 88, 6-Chloro-9-(2,2,2-trifluoro-ethyl)-8-(6-trifluoromethyl-pyridin-3-yl)-9H-pyrido[3,4-b]indole] | < 20%
> 10 µM | FC(F)(F)Cn1c2cnccc2c2cc(Cl)cc(-c3ccc(N4CCCCC4)nc3)c21 [Example 89, 6-Chloro-8-(3,4,5,6-tetrahydro-2H-[1,2′]bipyridinyl-5′-yl)-9-(2,2,2-trifluoro-ethyl)-9H-pyrido[3,4-b]indole] | > 80%
> 10 µM | CC#CCn1c2cnccc2c2cc(Cl)cc(-c3ccc(Cl)nc3)c21 [Example 90, 9-But-2-ynyl-6-chloro-8-(6-chloro-pyridin-3-yl)-9H-pyrido[3,4-b]indole] | < 20%
1.5 µM | CCn1c2c(-c3ccc(OC)nc3)cc(Cl)cc2c2ccnc(C)c21 [Example 91, 6-Chloro-9-ethyl-8-(6-methoxy-pyridin-3-yl)-1-methyl-9H-pyrido[3,4-b]indole] | > 80%
2.5 µM | CCn1c2c(-c3cnc4[nH]ccc4c3)cc(Cl)cc2c2ccnc(C)c21 [Example 92, 6-Chloro-9-ethyl-1-methyl-8-(1H-pyrrolo[2,3-b]pyridin-5-yl)-9H-pyrido[3,4-b]indole] | > 80%
2.2 µM | CCn1c2c(-c3ccc(N4CCOCC4)nc3)cc(Cl)cc2c2ccnc(C)c21 [Example 93, 6-Chloro-9-ethyl-1-methyl-8-(6-morpholin-4-yl-pyridin-3-yl)-9H-pyrido[3,4-b]indole] | > 80%
0.75 µM | COc1ccc(-c2cc(Cl)cc3c2[nH]c2c(C)nccc23)cn1 [Example 94, 6-Chloro-8-(6-methoxy-pyridin-3-yl)-1-methyl-9H-pyrido[3,4-b]indole] | > 80%
0.68 µM | Cc1ccc(-c2cc(Cl)cc3c2[nH]c2c(C)nccc23)cn1 [Example 95, 6-Chloro-1-methyl-8-(6-methyl-pyridin-3-yl)-9H-pyrido[3,4-b]indole] | 50 to 80%
0.85 µM | Cc1nccc2c1[nH]c1c(-c3ccc(N4CCOCC4)nc3)cc(Cl)cc12 [Example 96, 6-Chloro-1-methyl-8-(6-morpholin-4-yl-pyridin-3-yl)-9H-pyrido[3,4-b]indole] | 50 to 80%
2.4 µM | Cc1nccc2c1[nH]c1c(-c3ccc(Cl)nc3Cl)cc(Br)cc12 [Example 98, 6-Bromo-8-(2,6-dichloro-pyridin-3-yl)-1-methyl-9H-pyrido[3,4-b]indole] | > 80%
> 10 µM | COc1ncc(-c2cc(Cl)cc3c2[nH]c2c(C)nccc23)cc1F [Example 99, 6-Chloro-8-(5-fluoro-6-methoxy-pyridin-3-yl)-1-methyl-9H-pyrido[3,4-b]indole] | < 20%
1 µM | Cc1nccc2c1[nH]c1c(-c3ccc(C#N)nc3)cc(Cl)cc12 [Example 100, 5-(6-Chloro-1-methyl-9H-pyrido[3,4-b]indol-8-yl)-pyridine-2-carbonitrile] | < 20%
8.2 µM | Cc1nccc2c1[nH]c1c(-c3ccc(N4CCCCC4)nc3)cc(Cl)cc12 [Example 101, 6-Chloro-1-methyl-8-(3,4,5,6-tetrahydro-2H-[1,2′]bipyridinyl-5′-yl)-9H-pyrido[3,4-b]indole] | 20 to 50%
2.1 µM | Cc1nccc2c1[nH]c1c(-c3ccc(OC(C)C)nc3)cc(Cl)cc12 [Example 102, 6-Chloro-8-(6-isopropoxy-pyridin-3-yl)-1-methyl-9H-pyrido[3,4-b]indole] | 20 to 50%
1.9 µM | COc1ccc(-c2cc(Cl)cc3c2[nH]c2c(C)nccc23)c(Cl)n1 [Example 103, 6-Chloro-8-(2-chloro-6-methoxy-pyridin-3-yl)-1-methyl-9H-pyrido[3,4-b]indole] | > 80%
3.5 µM | COc1ccc(-c2cc(Cl)cc3c2[nH]c2c(C)nccc23)c(C)n1 [Example 104, 6-Chloro-8-(6-methoxy-2-methyl-pyridin-3-yl)-1-methyl-9H-pyrido[3,4-b]indole] | > 80%

Reference: patent publication US12275733B2, “Substituted pyrido[3,4-b]indoles for the treatment of cartilage disorders” (Sanofi, priority 2016, dated 2025)
